Source: patent US20240316144A1, “PHARMACEUTICAL COMPOSITION AND METHOD FOR INHIBITING ANGIOGENESIS” (ZIH YUAN TANG Biotechnology Co, Ltd., priority 2023, published 2024)

Columns and labels:
[1] = system: laser-induced angiogenesis; test: Fundus fluorescein angiography (FFA) of laser-induced choroidal neovascularization in mice, vitreous injection; assay type: in vivo, C57BL/6 mice; conditions: for FFA quantified values, difference to other groups: Eylea 40 μg/eye/μL, p<0.01 (FIG. 2D); for angiogenesis index (relative average fluorescence leakage ratio vs Day 0): vitreous injection, mean±S.E.M.
Experimental: (§1) Beauvericin (BEA), named GYT088 in this trail, was supplied by Shiyuantang Biotechnology Co. 5 mg of BEA (molecular weight 783.96) was dissolved in DMSO at a stock concentration of 50 mM, and then diluted to 100 μM with saline. Before injection, the sample was diluted to 1.6, 3.2, and 6.4 μM in saline, and then administered to the low, medium, and high-dose groups, which were equivalent to 1.28, 2.56, and 5.12 ng/eye, respectively, based on a vitreous volume of 4 μl in mice (wherein the injection volume is 1 μl); converted to the human doses of 1.28, 2.56, 5.12 μg/eye as the low, medium and high dose levels, respectively, based on a vitreous volume of 4-4.5 ml in human.
(§2) Male C57BL/6 mice from BioLASCO Taiwan CO., Ltd. at 7-8 weeks of age, with an average body weight of 17-20 g, were used in this study. The mice were housed in the Animal Room of the National Taipei Medical University for more than 5 days before the start of the experiment. The incubation temperature was set at 23±1° C., the humidity was set at 39˜43%, and the automated light control system maintained 12 hours of light and 12 hours of darkness. The feed was Rodent diet 5001 (Purina, MO, USA) and drinking water was supplied indefinitely.
(§3) After the adaptation period, the retina was cauterized with laser light (day 0), and the degree of retinal damage was confirmed by fundus photography (FP), fluorescein fundus angiography (FFA), and frequency-domain optical […] (SD-OCT) on the same day (FIG. 1). The mice were randomly divided into five groups and given vitreous injections of the corresponding drugs, including (1) control group, (2) positive control group: Eylea (40 μg/eye/μL), (3-5) GYT088 treatment groups at low-dose (1.28 ng/eye), medium-dose (2.56 ng/eye), and high-dose ([…]). Five mice in each group were clinically observed daily, and retinal injury repair was examined at Day 7 and Day 14.
Mice were deeply anesthetized and pupils were dilated. A Micron III retinal imaging microscope (Phoenix, San Ramon, CA, USA) was used to adjust the focal length, and the central socket of the mice was placed in the center of the fundus lens to capture fundus photography (FP), and then 10% sodium fluorescein solution was injected intraperitoneally, and retinal angiography was performed with a 520 nm filter to capture continuous images for analysis. After the administration of drugs, the FP, FFA, and SD-OCT results were observed once a week at Day 0 and recorded until Day 14. Sharp images were selected for analysis and imported into […] using ImageJ, and the software automatically quantified the pixel value and area of the fundus region by removing the background values. Due to differences in individual retinal structures, post-laser wound healing varies and overexposure of signals in the area may occur. If fluorescence leakage occurs outside of the location of direct laser damage, it is considered to be a phenomenon of fundus neovascularization. Therefore, the quantification was performed by randomly selecting three fixed areas of the fluorescence leakage area that were not laser-damaged areas.

[2] = system: retinal sublayer structure; test: SD-OCT damage score of the retinal sublayer structure after laser injury in mice, vitreous injection; assay type: in vivo, C57BL/6 mice; conditions: for SD-OCT quantified values, difference to other groups: p<0.01 (FIG. 3D)
Experimental: as §1, §2, §3
The OCT (Phoenix Research Laboratories, San Ramon, CA) imaging system used in this experiment is based on the principle of frequency-domain optical homodyne tomography. The computerized tomography (CT) scan was divided into three layers: the first layer was from the nerve fiber layer (NFL) to the inner nuclear layer (INL), the second layer was from the INL to the inner segment/outer segment (IS/OS), and the third layer was from the IS/OS to the retinal pigment epithelium (RPE). The damage was scored according to the retinal sublayer structure in a double-blind trail, and the mean value of the scores was taken as the index value of the damage after each score was made by 3 persons.

Eylea: positive control group: Eylea (40 μg/eye/μL), vitreous injection [reference compound]
FFA quantified values, difference to other groups ([1]; Day 7): significant difference | FFA quantified values, difference to other groups ([1]; Day 14): significant difference | damage score (scale 0-4) ([2]; Day 7, Eylea 40 μg/eye/μL, vitreous injection, control 1.38±0.17): 0.80±0.13 | SD-OCT quantified values, difference to other groups ([2]; Day 14, Eylea 40 μg/eye/μL): significant difference

CC(C)[C@H]1OC(=O)[C@H](Cc2ccccc2)N(C)C(=O)[C@@H](C(C)C)OC(=O)[C@H](Cc2ccccc2)N(C)C(=O)[C@@H](C(C)C)OC(=O)[C@H](Cc2ccccc2)N(C)C1=O [GYT088, beauvericin]
angiogenesis index (relative average fluorescence leakage ratio vs Day 0) ([1]; Day 7, high-dose 5.12 ng/eye, p<0.05): 1.53±0.17 times | angiogenesis index (relative average fluorescence leakage ratio vs Day 0) ([1]; Day 7, low-dose 1.28 ng/eye): 1.92±0.21 times | angiogenesis index (relative average fluorescence leakage ratio vs Day 0) ([1]; Day 7, medium-dose 2.56 ng/eye): 1.59±0.22 times | angiogenesis index (relative average fluorescence leakage ratio vs Day 0) ([1]; Day 14, high-dose 5.12 ng/eye, p<0.01): 1.63±0.16 times | angiogenesis index (relative average fluorescence leakage ratio vs Day 0) ([1]; Day 14, low-dose 1.28 ng/eye): 2.46±0.18 times | angiogenesis index (relative average fluorescence leakage ratio vs Day 0) ([1]; Day 14, medium-dose 2.56 ng/eye, p<0.01): 1.79±0.17 times | damage score compared with control group ([2]; Day 14, high-dose 5.12 ng/eye, vitreous injection): significantly lower than control group | SD-OCT quantified values, difference to other groups ([2]; Day 14, low-dose 1.28 ng/eye): significant difference | SD-OCT quantified values, difference to other groups ([2]; Day 14, mid-dose 2.56 ng/eye): significant difference
